Data on four molecules can be found in publication PMC8920474 (Current Research in Chemical Biology, 2022).

For one test, the target named is TMPRSS2 (Homo sapiens, UniProt O15393). Description: VeroE6/TMPRSS2 cell-based TMPRSS2 enzyme inhibitory assay. The settings on record: VeroE6/TMPRSS2 cells; up to a concentration of 4.0 μM.
The next test has as its system TMPRSS2 in LNCaP cells. Also noted: species or system human. The settings on record: read-out: IC50, LNCaP cell-based proteolytic enzyme inhibition.
A further test addresses furin (Homo sapiens, UniProt P09958). Description: Vero/furin cell-based furin enzyme inhibitory assay. Particulars: for furin inhibitory activity: Vero/furin cells, up to a concentration of 40.0 μM.

Sequence of furin (P09958 108-794): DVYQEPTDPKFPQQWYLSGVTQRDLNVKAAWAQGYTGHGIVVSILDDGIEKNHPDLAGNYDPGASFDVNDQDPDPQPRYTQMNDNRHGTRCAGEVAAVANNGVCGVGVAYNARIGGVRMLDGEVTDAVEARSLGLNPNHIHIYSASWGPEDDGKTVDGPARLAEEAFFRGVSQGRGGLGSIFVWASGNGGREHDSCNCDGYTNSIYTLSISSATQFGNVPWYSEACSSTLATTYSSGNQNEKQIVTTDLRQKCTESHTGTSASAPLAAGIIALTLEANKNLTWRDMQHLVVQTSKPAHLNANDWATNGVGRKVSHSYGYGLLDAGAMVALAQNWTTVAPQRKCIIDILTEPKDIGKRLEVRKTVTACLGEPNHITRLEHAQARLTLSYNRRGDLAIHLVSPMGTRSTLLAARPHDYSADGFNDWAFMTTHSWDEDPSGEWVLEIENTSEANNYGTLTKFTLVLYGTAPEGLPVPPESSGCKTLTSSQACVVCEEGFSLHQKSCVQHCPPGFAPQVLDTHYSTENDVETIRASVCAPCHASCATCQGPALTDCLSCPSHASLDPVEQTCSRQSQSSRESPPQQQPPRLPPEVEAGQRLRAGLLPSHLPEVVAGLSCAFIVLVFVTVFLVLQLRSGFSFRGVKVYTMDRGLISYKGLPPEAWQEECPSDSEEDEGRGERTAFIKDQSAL
Sequence of TMPRSS2 (O15393 whole entry): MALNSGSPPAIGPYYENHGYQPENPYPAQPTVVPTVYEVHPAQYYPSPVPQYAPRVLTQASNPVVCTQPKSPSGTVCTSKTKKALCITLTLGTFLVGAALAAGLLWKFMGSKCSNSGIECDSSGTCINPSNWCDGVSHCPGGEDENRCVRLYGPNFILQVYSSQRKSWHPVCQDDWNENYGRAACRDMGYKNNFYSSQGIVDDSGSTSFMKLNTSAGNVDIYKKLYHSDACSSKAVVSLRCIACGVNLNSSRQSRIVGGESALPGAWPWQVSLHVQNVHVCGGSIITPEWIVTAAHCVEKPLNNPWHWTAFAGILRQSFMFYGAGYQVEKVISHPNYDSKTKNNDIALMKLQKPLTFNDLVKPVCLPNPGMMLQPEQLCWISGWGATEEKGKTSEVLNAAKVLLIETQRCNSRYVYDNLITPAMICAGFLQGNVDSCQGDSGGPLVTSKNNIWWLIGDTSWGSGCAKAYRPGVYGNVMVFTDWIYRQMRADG

For `CN(Cc1cc(Br)cc(Br)c1N)C1CCCCC1` [Bromhexine, bromhexine], at TMPRSS2, the TMPRSS2 inhibitory activity result was “inactive”. A word on the IC50: it is the concentration that gives 50% inhibition. Consider `CN(C)C(=O)COC(=O)Cc1ccc(OC(=O)c2ccc(NC(=N)N)cc2)cc1` [camostat], for which the IC50 in the test with TMPRSS2 in LNCaP cells was determined as 0.026 ± 0.03 µM. The furin inhibitory activity entry at furin was “inactive”. The molecule `N=C(N)c1ccc(/N=N/Nc2ccc(C(=N)N)cc2)cc1` [diminazene] displayed an IC50 against furin of 13.2 µM.

Consider `N=C(N)c1ccc2cc(OC(=O)c3ccc(N=C(N)N)cc3)ccc2c1` [nafamostat], for which, on furin, the furin inhibitory activity result was “inactive”.
